# Measurements as given in patent publication US9441000B2, “Use of metallocene compounds for cancer treatment” (Chevron Phillips Chemical Company LP, priority 2011, dated 2016).
# Key:
# Assay type in all cases: cell-based
# [1] = system: Hey-A8 MDR chemoresistant ovarian cancer cells; experiment: CellTiter-Blue viability assay, Hey-A8 MDR; details: HeyA8-MDR, 96 hr treatment, approximately 5,000 Hey-A8 MDR cells
# Description: (§1) Examples 18-22 were prepared and tested as follows. Approximately 5,000 A549 cells (University of Texas M.D. Anderson Cancer Center) growing in RPMI 1640 were plated in each 96-well overnight before adding the test compounds for 96 hr of treatment. Final concentrations achieved in the wells were 0, 0.8, 1.6, 3.1, 6.2, 12.5, 25, 50, 100, and 200 μM. All of the test compounds were reconstituted in DMSO just before the treatment. […] After 96 hr, the medium was refreshed. Approximately 10 μL of CellTiter-Blue® (Promega) was added to 100 μL of medium in each well and incubated at 37° C. for >4 hours. The plates were scanned using a SpectraMax M2 model microplate reader to measure the absorbance. CellTiter-Blue contains dark blue resazurin. Viable cells are able to convert non-fluorescent resazurin to its fluorescent product, resorufin. […] Reduction of resazurin to resorufin also involves a shift of the absorbance maximum from 605 nm to 573 nm, so viability can also be estimated using absorbance. Results were normalized to untreated controls to determine the percent reduction in viability. Graphs were generated using GraphPad Prism (GraphPad Software, Inc).
# Examples 38-41 were prepared and tested using substantially the same procedure as described in Examples 18-22, except that approximately 5,000 Hey-A8 MDR ovarian cancer cells (University of Texas M.D. Anderson Cancer Center) were used. […]
# [2] = system: A253 (head and neck tumor) cell line; experiment: Sulforhodamine-B (SRB) microculture colorimetric cytotoxicity assay, A253; details: 96 hr treatment, A253 head and neck tumor cells, read-out: IC50 ± SD, A253
# Description: (§2) Drug solutions of CPH-1, CPH-2 and CPH-3 were made in dimethyl sulfoxide (DMSO, Sigma Aldrich) at a concentration of 20 mM, filtered through a Millipore filter, 0.22 μm, before use, and diluted by nutrient medium to various working concentrations. The nutrient medium was RPMI-1640 (PAA Laboratories) supplemented with 10% fetal bovine serum (Biochrom AG) and penicillin/streptomycin (PAA Laboratories). […]
# (§3) The cytotoxic activities of CPH-1, CPH-2 and CPH-3 were evaluated using a sulforhodamine-B (SRB, Sigma Aldrich) microculture colorimetric assay, as described in Skehan et al., J. Natl. Cancer I. 82 (1990) 1107-1112, the disclosure of which is incorporated herein by reference in its entirety. […] The percentages of surviving cells relative to untreated controls were determined 96 hr after the beginning of drug exposure. […] After dyeing, the plates were again washed to remove the dye with 1% acetic acid and allowed to air dry overnight, 100 μL of 10 mM Tris base solutions were added to each well of the plate, and absorbance was measured at 570 nm using a 96 well plate reader (Tecan Spectra, Crailsheim, Germany). […]
# [3] = system: A549 (lung carcinoma) cell line; experiment: Sulforhodamine-B (SRB) microculture colorimetric cytotoxicity assay, A549; details: 96 hr treatment, A549 lung carcinoma cells, read-out: IC50 ± SD, A549
# Description: as §2, §3
# [4] = system: A2780 (ovarian cancer) cell line; experiment: Sulforhodamine-B (SRB) microculture colorimetric cytotoxicity assay, A2780; details: 96 hr treatment, A2780 ovarian cancer cells, read-out: IC50 ± SD, A2780
# Description: as §2, §3
# [5] = system: A549 lung carcinoma cell line; experiment: CellTiter-Blue viability assay, A549 (Examples 18-22); details: 96 hr treatment, approximately 5,000 A549 cells per well
# Description: as §1
# [6] = system: A2780 ovarian cancer cells; experiment: CellTiter-Blue viability assay, A2780, approximately 2,000 cells (Examples 23-27); details: 96 hr treatment, approximately 2,000 A2780 cells
# Description: as §1
# Examples 23-27 were prepared and tested using substantially the same procedure as described in Examples 18-22, except that approximately 2,000 A2780 ovarian cancer cells (University of Texas M.D. Anderson Cancer Center) were used. […]
# [7] = system: SKOV-3 chemoresistant ovarian cancer cells; experiment: CellTiter-Blue viability assay, SKOV-3; details: 96 hr treatment, approximately 5,000 SKOV-3 cells
# Description: as §1
# Examples 34-37 were prepared and tested using substantially the same procedure as described in Examples 18-22, except that approximately 5,000 SKOV-3 ovarian cancer cells (American Type Culture Collection) were used. […]
# [8] = system: T-24 chemoresistant urinary bladder cancer cells; experiment: CellTiter-Blue viability assay, T-24; details: 96 hr treatment, approximately 5,000 T-24 cells
# Description: as §1
# Examples 46-49 were prepared and tested using substantially the same procedure as described in Examples 18-22, except that approximately 5,000 T-24 urinary bladder cancer cells (American Type Culture Collection) were used. […]
# [9] = system: NCI-Adr-Res chemoresistant ovarian cancer cells; experiment: CellTiter-Blue viability assay, NCI-Adr-Res; details: Homo sapiens, 96 hr treatment, approximately 5,000 NCI-Adr-Res cells
# Description: as §1
# Examples 42-45 were prepared and tested using substantially the same procedure as described in Examples 18-22, except that approximately 5,000 NCI-Adr-Res ovarian cancer cells (National Cancer Institute) were used. […]
# [10] = system: MeWo chemoresistant melanoma cancer cells; experiment: CellTiter-Blue viability assay, MeWo; details: Homo sapiens, 96 hr treatment, approximately 5,000 MeWo cells
# Description: as §1
# Examples 50-53 were prepared and tested using substantially the same procedure as described in Examples 18-22, except that approximately 5,000 MeWo melanoma cancer cells (University of Texas M.D. Anderson Cancer Center) were used. […]
smiles,measurement,setting,value
"CC(=O)O[C@H]1C(=O)[C@@]2(C)[C@H]([C@H](OC(=O)c3ccccc3)[C@]3(O)C[C@H](OC(=O)[C@H](O)[C@@H](NC(=O)c4ccccc4)c4ccccc4)C(C)=C1C3(C)C)[C@]1(OC(C)=O)CO[C@@H]1C[C@@H]2O [Paclitaxel, paclitaxel, reference compound]",IC50,[1],0.03 µM
"N.N.[Cl][Pt][Cl] [Cisplatin, cisplatin, reference compound]",IC50,[2],0.81 ± 0.02 µM
same,IC50,[3],1.51 ± 0.02 µM
same,IC50,[4],0.55 ± 0.03 µM
same,IC50,[5],82.7 µM
same,IC50,[6],35.4 µM
same,IC50,[7],12.8 µM
same,IC50,[8],> 200 µM
"COc1cccc2c1C(=O)c1c(O)c3c(c(O)c1C2=O)C[C@@](O)(C(=O)CO)C[C@@H]3O[C@H]1C[C@H](N)[C@H](O)[C@H](C)O1 [Doxorubicin, doxorubicin, reference compound]",IC50,[9],14.3 µM
"CN(C)/N=N/c1[nH]cnc1C(N)=O [Dacarbazine, dacarbazine, reference compound]",IC50,[10],7.9 µM
